Reference: patent US9815796B2 (Merck Sharp & Dohme Corp., priority 2013, dated 2017)

These compounds were tested against Rhesus PDE2A3 (Macaca mulatta, UniProt B3VTJ2) (assay: PDE2 fluorescence polarization (IMAP FP) inhibition assay, rhesus enzyme). Conditions: Rhesus PDE2, Lab A, at 1 uM.
Type: biochemical, rhesus macaque
Method: The activity of the compounds in accordance with the present invention as PDE2 inhibitors may be readily determined using a fluorescence polarization (FP) methodology (Huang, W., et al., J. Biomol Screen, 2002, 7: 215).
In a typical experiment the PDE2 inhibitory activity of the compounds of the present invention was determined in accordance with the following experimental method. Rhesus PDE2A3 was amplified from rhesus macaque brain cDNA (Biochain Institute, Hayward, Calif.) using primers based on human PDE2A sequence (accession NM_002599.3) where the forward primer containing a Kozak consensus was 5′-[…]-3′ and the reverse primer was 5′-[…]-3′. Amplification with Easy-A High-Fidelity PCR cloning enzyme (Stratagene, La Jolla, Calif.) was 95° C. for 2 minutes followed by thirty three cycles of 95° C. for 40 seconds, 52° C. for 30 seconds, and 72° C. for 2 minutes 48 seconds. Final extension was 72° C. for 7 minutes. The PCR product was TA cloned into pcDNA3.3-TOPO (Invitrogen, Carlsbad, Calif.) according to standard protocol. A consensus sequence was developed from multiple clones and then deposited into GenBank (EU812167). AD293 cells (Stratagene, La Jolla, Calif.) with 70-80% confluency were transiently transfected with rhesus PDE2A3/pcDNA3.3-TOPO using Lipofectamine 2000 according to manufacturer specifications (Invitrogen, Carlsbad, Calif.). Cells were harvested 48 hours post-transfection and lysed by sonication (setting 3, 10×5 sec pulses) in a buffer containing 20 mM HEPES pH 7.4, 1 mM EDTA and Complete Protease Inhibitor Cocktail Tablets (Roche, Indianapolis, Ind.). Lysate was collected by centrifugation at 75,000×g for 20 minutes at 4° C. and supernatant utilized for evaluation of PDE2 activity. The fluorescence polarization assay for cyclic nucleotide phosphodiesterases was performed using an IMAP® FP kit supplied by Molecular Devices, Sunnyvale, Calif. (product # R8139). […] Assays were performed at room temperature in 384-well microtiter plates with an incubation volume of 20.2 μL. Solutions of test compounds were prepared in DMSO and serially diluted with DMSO to yield 8 μL of each of 10 solutions differing by 3-fold in concentration, at 32 serial dilutions per plate. […] 0% of inhibition is determined by using DMSO (1% final concentrations).
A Labcyte Echo 555 (Labcyte, Sunnyvale, Calif.) is used to dispense 200 nL from each well of the titration plate to the 384 well assay plate. Ten microliters of a solution of enzyme (1/2000 final dilution from aliquots; sufficient to produce 20% substrate conversion) was added to the assay plate. Next 10 uL of a separate solution of the substrate FAM-labeled cAMP (50 nM final concentration product # R7506 from Molecular Devices) and the activator cGMP (1 uM final concentration), prepared in the assay buffer (10 mM Tris HCl, pH 7.2, 10 mM MgCl2, 0.05% NaN3 0.01% Tween-20, and 1 mM DTT) was added to the assay plate and shaken to mix. The reaction is allowed to proceed at room temperature for 60 minutes. A binding solution is then made from the kit components, comprised of 80% Solution A, 20% Solution B and binding reagent at a volume of 1/600 the total binding solution. The enzymatic reaction is stopped by addition of 60 μL of the binding solution to each well of the assay plates and the plates are sealed and shaken for 30 seconds. The plate was incubated at room temperature for at least one hour prior to determining the fluorescence polarization (FP). The parallel and perpendicular fluorescence of each well of the plate was measured using a Tecan Genios Pro plate reader (Tecan, Switzerland) or Perkin Elmer EnVision™ plate reader (Waltham, Mass.). Fluorescence polarization (mP) was calculated from the parallel (S) and perpendicular (P) fluorescence of each sample well and the analogous values for the median control well, containing only substrate (So and Po), using the following equation: Polarization (mP)=1000*(S/So−P/Po)/(S/So+P/Po).

Rhesus PDE2A3, sequence (B3VTJ2 1-941): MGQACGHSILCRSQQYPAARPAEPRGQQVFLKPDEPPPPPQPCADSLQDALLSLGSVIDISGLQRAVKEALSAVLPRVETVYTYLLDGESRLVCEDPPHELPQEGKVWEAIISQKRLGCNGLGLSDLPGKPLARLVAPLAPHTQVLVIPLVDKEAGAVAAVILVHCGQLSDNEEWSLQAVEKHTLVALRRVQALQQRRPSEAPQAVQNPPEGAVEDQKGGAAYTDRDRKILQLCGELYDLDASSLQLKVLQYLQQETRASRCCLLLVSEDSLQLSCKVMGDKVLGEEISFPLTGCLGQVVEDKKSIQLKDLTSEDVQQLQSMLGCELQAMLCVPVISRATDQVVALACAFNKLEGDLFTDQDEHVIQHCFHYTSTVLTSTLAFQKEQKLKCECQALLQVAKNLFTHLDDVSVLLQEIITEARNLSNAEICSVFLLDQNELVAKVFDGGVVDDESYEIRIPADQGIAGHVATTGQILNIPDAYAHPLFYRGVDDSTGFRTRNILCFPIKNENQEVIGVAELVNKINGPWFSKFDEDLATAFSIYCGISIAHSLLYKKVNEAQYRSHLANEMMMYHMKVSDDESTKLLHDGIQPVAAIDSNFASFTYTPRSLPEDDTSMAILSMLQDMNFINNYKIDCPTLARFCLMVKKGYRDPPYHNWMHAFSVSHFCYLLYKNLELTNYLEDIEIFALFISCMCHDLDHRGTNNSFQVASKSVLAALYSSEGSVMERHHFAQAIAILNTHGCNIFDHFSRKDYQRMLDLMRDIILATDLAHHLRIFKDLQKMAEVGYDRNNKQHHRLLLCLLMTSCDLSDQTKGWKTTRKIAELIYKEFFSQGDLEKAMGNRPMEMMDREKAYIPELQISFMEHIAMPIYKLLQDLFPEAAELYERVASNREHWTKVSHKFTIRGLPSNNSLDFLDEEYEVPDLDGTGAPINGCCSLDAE

| Rhesus PDE2 % inh. at 1 uM - Lab A [% inh.] | Compound |
| --- | --- |
| 45 | O=C(NC(c1ccccc1)c1ccc(C(F)(F)F)cc1)c1cc(=O)[nH]c(-c2ccccc2)n1 (centres unmarked) [Example 162, 6-oxo-2-phenyl-N-{phenyl[4-(trifluoromethyl)phenyl]methyl}-1,6-dihydropyrimidine-4-carboxamide] |

Same assay, conditions: Rhesus PDE2, Lab A; read-out: Rhesus PDE2 Ki (nM) - Lab A

| Ki [nM] | Compound |
| --- | --- |
| 715 | Cc1nc(C(=O)NC(c2ccc(F)cc2)c2ccc(C(F)(F)F)cc2)cc(=O)[nH]1 (centres unmarked) [Example 130, N-{(4-fluorophenyl)[4-(trifluoromethyl)phenyl]methyl}-2-methyl-6-oxo-1,6-dihydropyrimidine-4-carboxamide] |
| 8340 | CN(Cc1ccc(C(F)(F)F)cc1)C(=O)c1cc(=O)[nH]c(-c2ccccc2)n1 [Example 345, N-methyl-6-oxo-2-phenyl-N-[4-(trifluoromethyl)benzyl]-1,6-dihydropyrimidine-4-carboxamide] |
| 1490 | Cc1cc(-c2ccc([C@@H](C)NC(=O)c3cc(=O)[nH]c(C)n3)cc2)ccn1 [Example 319, 2-methyl-N-{(1R)-1-[4-(2-methylpyridin-4-yl)phenyl]ethyl}-6-oxo-1,6-dihydropyrimidine-4-carboxamide] |
| 915 | O=C(NC(c1ccccc1)c1ccc(C(F)(F)F)cc1)c1cc(=O)[nH]c(C2CC2)n1 (centres unmarked) [Example 196, 2-cyclopropyl-6-oxo-N-{phenyl[4-(trifluoromethyl)phenyl]methyl}-1,6-dihydropyrimidine-4-carboxamide] |
| 809 | Cc1nc(C(=O)N[C@H](C)c2ccc([S+]([O-])C(F)(F)F)cc2)cc(=O)[nH]1 (some centres unmarked) [Example 330] |
| ~601 | CC(NC(=O)c1cc(=O)[nH]c(-c2ccccc2)n1)c1ccc(F)cc1 (centres unmarked) [Example 343, N-[1-(4-fluorophenyl)ethyl]-6-oxo-2-phenyl-1,6-dihydropyrimidine-4-carboxamide] |
| 1570 | CC(C)(NC(=O)c1cc(=O)[nH]c(-c2ncccn2)n1)c1ccc(OC(F)(F)F)c(F)c1 [Example 71, N-{1-[3-fluoro-4-(trifluoromethoxy)phenyl]-1-methylethyl}-6-oxo-1,6-dihydro-2,2′-bipyrimidine-4-carboxamide] |
| 2780 | C[C@@H](NC(=O)c1cc(=O)[nH]c(C(C)(C)n2cccn2)n1)c1ccc(C(F)(F)F)cc1 [Example 7, 2-[1-methyl-1-(1H-pyrazol-1-yl)ethyl]-6-oxo-N-{(1R)-1-[4-(trifluoromethyl)phenyl]ethyl}-1,6-dihydropyrimidine-4-carboxamide] |
| 51400 | Cc1nc(C(=O)N[C@@H](C)c2cccc3ccccc23)cc(=O)[nH]1 [Example 302, 2-methyl-N-[(3S)-1-naphthalen-1-ylethyl]-6-oxo-1,6-dihydropyrimidine-4-carboxamide] |

Second part, the compound before the results:

| Compound | Ki [nM] |
| --- | --- |
| COC(=O)c1ccc(C(C)(C)NC(=O)c2cc(=O)[nH]c(-c3ccccc3)n2)cc1 [Example 160, methyl 4-(1-methyl-1-{[(6-oxo-2-phenyl-1,6-dihydropyrimidin-4-yl)carbonyl]amino}ethyl)benzoate] | 826 |
| COCc1nc(C(=O)NC(C)(C)c2ccc(C(F)(F)F)cc2)cc(=O)[nH]1 [Example 124, 2-(methoxymethyl)-N-{1-methyl-1-[4-(trifluoromethyl)phenyl]ethyl}-6-oxo-1,6-dihydropyrimidine-4-carboxamide] | 283 |
| O=C(NCc1ccc(C2CC2)cc1)c1cc(=O)[nH]c(C2CC2)n1 [Example 221, 2-cyclopropyl-N-(4-cyclopropylbenzyl)-6-oxo-1,6-dihydropyrimidine-4-carboxamide] | 681 |
| O=C(NCc1ccc(C(F)(F)F)cc1Cl)c1cc(=O)[nH]c(C2CC2)n1 [Example 229, N-[2-chloro-4-(trifluoromethyl)benzyl]-2-cyclopropyl-6-oxo-1,6-dihydropyrimidine-4-carboxamide] | 864 |
| Cc1nc(C(=O)N[C@H](C)c2ccc(C(F)(F)F)c3ccccc23)cc(=O)[nH]1 [Example 28, 2-methyl-6-oxo-N-{(1R)-1-[4-(trifluoromethyl)naphthalen-1-yl]ethyl}-1,6-dihydropyrimidine-4-carboxamide] | 3490 |
| O=C(NC(c1ccccc1)c1ccc(C(F)(F)F)cc1)c1cc(=O)[nH]c(-c2ccccc2)n1 (centres unmarked) [Example 162, 6-oxo-2-phenyl-N-{phenyl[4-(trifluoromethyl)phenyl]methyl}-1,6-dihydropyrimidine-4-carboxamide] | > 1000 |
| CC(NC(=O)c1cc(=O)[nH]c(-c2ccccc2)n1)c1ccncc1 (centres unmarked) [Example 358, 6-oxo-2-phenyl-N-(1-pyridin-4-ylethyl)-1,6-dihydropyrimidine-4-carboxamide] | 11600 |

Same assay, conditions: Rhesus PDE2, Lab B; read-out: Rhesus PDE2 Ki (nM) - Lab B

| Ki [nM] | Compound |
| --- | --- |
| ~1220 | Cc1nc(C(=O)NC(C)(c2ccc(S(F)(F)(F)(F)F)cc2)C(C)C)cc(=O)[nH]1 (single isomer, unassigned) [Example 662, (S)- or (R)-N-{1,2-dimethyl-1-[4-(pentafluoro-λ^6-sulfanyl)phenyl]propyl}-2-methyl-6-oxo-1,6-dihydropyrimidine-4-carboxamide] |
| 682 | CC(NC(=O)c1cc(=O)[nH]c(-c2ccccc2)n1)c1ccc(F)cc1 (centres unmarked) [Example 343, N-[1-(4-fluorophenyl)ethyl]-6-oxo-2-phenyl-1,6-dihydropyrimidine-4-carboxamide] |
| 8980 | C[C@H](c1ccc(C(F)(F)F)cc1)N(C)C(=O)c1cc(=O)[nH]c(-c2ccccc2)n1 [Example 389, N-methyl-6-oxo-2-phenyl-N-{(1R)-1-[4-(trifluoromethyl)phenyl]ethyl}-1,6-dihydropyrimidine-4-carboxamide] |

Further lines, the compound ahead of its results:

| Compound | Ki [nM] |
| --- | --- |
| Cc1nc(C(=O)N[C@@H](c2ccc(C(F)(F)F)c([N+](=O)[O-])c2)C(C)(C)C)cc(=O)[nH]1 [Example 531, N-{(1R)-2,2-dimethyl-1-[3-nitro-4-(trifluoromethyl)phenyl]propyl}-2-methyl-6-oxo-1,6-dihydropyrimidine-4-carboxamide] | 32 |
| Cc1nc(C(=O)NC(c2ccc(C3(C)CC3)c(F)c2)C(C)(C)C)cc(=O)[nH]1 (single isomer, unassigned) [Example 710, (S)- or (R)-N-(1-(3-fluoro-4-(1-methylcyclopropyl)phenyl)-2,2-dimethylpropyl)-2-methyl-6-oxo-1,6-dihydropyrimidine-4-carboxamide] | > 2970 |
| CC(NC(=O)c1cc(=O)[nH]c(-c2ccccc2)n1)c1ccc(-c2ccncc2)cc1 (centres unmarked) [Example 384, 6-oxo-2-phenyl-N-[1-(4-pyridin-4-ylphenyl)ethyl]-1,6-dihydropyrimidine-4-carboxamide] | 319 |
| CC1(C(NC(=O)c2cc(=O)[nH]c(-c3ncccn3)n2)c2ccc(SC(F)(F)F)c(F)c2)CC1 (single isomer, unassigned) [Example 708, (S)- or (R)-N-((3-fluoro-4-((trifluoromethyl)thio)phenyl)(1-methylcyclopropyl)methyl)-6-oxo-1,6-dihydro-[2,2′-bipyrimidine-4-carboxamide] | ~2120 |
| CC(C)(NC(=O)c1cc(=O)[nH]c(-c2ccccc2)n1)c1cccc(Br)c1 [Example 400, N-[1-(3-bromophenyl)-1-methylethyl]-6-oxo-2-phenyl-1,6-dihydropyrimidine-4-carboxamide] | 1070 |
| COc1ccc(C(C)(C)NC(=O)c2cc(=O)[nH]c(-c3ccccc3)n2)cc1 [Example 460, N-[1-(4-methoxyphenyl)-1-methylethyl]-6-oxo-2-phenyl-1,6-dihydropyrimidine-4-carboxamide] | 371 |
| COC(=O)C(NC(=O)c1cc(=O)[nH]c(-c2ccccc2)n1)c1ccc(C(F)(F)F)cc1 (centres unmarked) [Example 406, methyl {[(6-oxo-2-phenyl-1,6-dihydropyrimidin-4-yl)carbonyl]amino}[4-(trifluoromethyl)phenyl]acetate] | 226 |
| O=C(NC(c1ccccc1)c1ccc(C(F)(F)F)cc1)c1cc(=O)[nH]c(-c2ccccc2)n1 (centres unmarked) [Example 162, 6-oxo-2-phenyl-N-{phenyl[4-(trifluoromethyl)phenyl]methyl}-1,6-dihydropyrimidine-4-carboxamide] | 1000 |
| C[C@H](NC(=O)c1cc(=O)[nH]c(-c2ccccc2)n1)c1cccc2ccccc12 [Example 362, N-[(1S)-1-naphthalen-1-ylethyl]-6-oxo-2-phenyl-1,6-dihydropyrimidine-4-carboxamide] | ~24700 |
